Measured values published in patent publication US9944645B2, “Imidazotriazines and imidazopyrimidines as kinase inhibitors” (Incyte Holdings Corporation, priority 2006, dated 2018).

What follows are compounds tested against c-Met kinase (h-Met; histidine-tagged c-Met catalytic domain fusion protein) (Homo sapiens (Human), UniProt P08581) (assay: In Vitro c-Met Kinase Enzyme Assays). Details: phosphorylation of poly Glu-Tyr, 5 μM ATP, 25 minutes at 30° C.
Type: biochemical
In short: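 His-tagged c-Met catalytic domain reacted 25 min at 30° C, within the linear initial-rate range. Phosphotyrosine detected by ELISA with peroxidase-labeled anti-phospho-tyrosine antibody and TMB, OD read at 450 nm (540 nm correction); IC50 from curve fit.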

c-Met kinase (h-Met; histidine-tagged c-Met catalytic domain fusion protein), sequence (P08581 1078-1345): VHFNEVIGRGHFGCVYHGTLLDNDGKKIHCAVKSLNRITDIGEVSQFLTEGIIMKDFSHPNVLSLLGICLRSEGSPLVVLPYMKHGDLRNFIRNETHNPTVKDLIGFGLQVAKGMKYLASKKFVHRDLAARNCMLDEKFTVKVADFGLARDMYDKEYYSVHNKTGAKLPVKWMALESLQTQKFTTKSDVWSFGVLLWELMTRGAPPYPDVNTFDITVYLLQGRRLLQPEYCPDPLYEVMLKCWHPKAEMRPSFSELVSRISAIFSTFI

Structure (SMILES) | IC50
O=C(N[C@H]1CCC[C@@H]1O)c1ccc(-c2cnc3ncc(Cc4ccc5ncccc5c4)n3n2)cc1F [Example 142, 2-Fluoro-N-[(1S,2S)-2-hydroxycyclopentyl]-4-[7-(quinolin-6-ylmethyl)imidazo[1,2-b][1,2,4]triazin-2-yl]benzamide] | < 500 nM
O=C(NCCO)c1ccc(-c2cnc3ncc(Cc4ccc5ncccc5c4)n3n2)cc1F [Example 143, 2-Fluoro-N-(2-hydroxyethyl)-4-[7-(quinolin-6-ylmethyl)imidazo[1,2-b][1,2,4]triazin-2-yl]benzamide] | < 500 nM
COCC1(NC(=O)c2ccc(-c3cnc4ncc(Cc5ccc6ncccc6c5)n4n3)cc2F)CCC1 [Example 144, 2-Fluoro-N-[1-(methoxymethyl)cyclobutyl]-4-[7-(quinolin-6-ylmethyl)imidazo[1,2-b][1,2,4]triazin-2-yl]benzamide] | < 500 nM
COCC1(NC(=O)c2ccc(-c3cnc4ncc(Cc5ccc6ncccc6c5)n4n3)cc2F)CCOCC1 [Example 145, 2-Fluoro-N-[4-(methoxymethyl)tetrahydro-2H-pyran-4-yl]-4-[7-(quinolin-6-ylmethyl)imidazo[1,2-b][1,2,4]triazin-2-yl]benzamide] | < 500 nM
O=C(NCC1CC1)c1ccc(-c2cnc3ncc(Cc4ccc5ncccc5c4)n3n2)cc1F [Example 146, N-(Cyclopropylmethyl)-2-fluoro-4-[7-(quinolin-6-ylmethyl)imidazo[1,2-b][1,2,4]triazin-2-yl]benzamide] | < 500 nM
O=C(NCC1CCOCC1)c1ccc(-c2cnc3ncc(Cc4ccc5ncccc5c4)n3n2)cc1F [Example 147, 2-Fluoro-4-[7-(quinolin-6-ylmethyl)imidazo[1,2-b][1,2,4]triazin-2-yl]-N-(tetrahydro-2H-pyran-4-ylmethyl)benzamide] | < 500 nM
CN(C)CCNC(=O)c1ccc(-c2cnc3ncc(Cc4ccc5ncccc5c4)n3n2)cc1F [Example 148, N-[2-(Dimethylamino)ethyl]-2-fluoro-4-[7-(quinolin-6-ylmethyl)imidazo[1,2-b][1,2,4]triazin-2-yl]benzamide] | < 500 nM
O=C(NCCN1CCCCC1)c1ccc(-c2cnc3ncc(Cc4ccc5ncccc5c4)n3n2)cc1F [Example 149, 2-Fluoro-N-(2-piperidin-1-ylethyl)-4-[7-(quinolin-6-ylmethyl)imidazo[1,2-b][1,2,4]triazin-2-yl]benzamide] | < 500 nM
CN1CCCC1CCNC(=O)c1ccc(-c2cnc3ncc(Cc4ccc5ncccc5c4)n3n2)cc1F (stereo not drawn) [Example 150, 2-Fluoro-N-[2-(1-methylpyrrolidin-2-yl)ethyl]-4-[7-(quinolin-6-ylmethyl)imidazo[1,2-b][1,2,4]triazin-2-yl]benzamide] | < 500 nM
O=C(NCc1ccccn1)c1ccc(-c2cnc3ncc(Cc4ccc5ncccc5c4)n3n2)cc1F [Example 151, 2-Fluoro-N-(pyridin-2-ylmethyl)-4-[7-(quinolin-6-ylmethyl)imidazo[1,2-b][1,2,4]triazin-2-yl]benzamide] | < 500 nM
O=C(NCc1cccnc1)c1ccc(-c2cnc3ncc(Cc4ccc5ncccc5c4)n3n2)cc1F [Example 152, 2-Fluoro-N-(pyridin-3-ylmethyl)-4-[7-(quinolin-6-ylmethyl)imidazo[1,2-b][1,2,4]triazin-2-yl]benzamide] | < 500 nM
O=C(NCc1ccncc1)c1ccc(-c2cnc3ncc(Cc4ccc5ncccc5c4)n3n2)cc1F [Example 153, 2-Fluoro-N-(pyridin-4-ylmethyl)-4-[7-(quinolin-6-ylmethyl)imidazo[1,2-b][1,2,4]triazin-2-yl]benzamide] | < 500 nM
O=C(NCCc1ccccn1)c1ccc(-c2cnc3ncc(Cc4ccc5ncccc5c4)n3n2)cc1F [Example 154, 2-Fluoro-N-(2-pyridin-2-ylethyl)-4-[7-(quinolin-6-ylmethyl)imidazo[1,2-b][1,2,4]triazin-2-yl]benzamide] | < 500 nM
CC(NC(=O)c1ccc(-c2cnc3ncc(Cc4ccc5ncccc5c4)n3n2)cc1F)c1cccnc1 (stereo not drawn) [Example 155, 2-Fluoro-N-(1-pyridin-3-ylethyl)-4-[7-(quinolin-6-ylmethyl)imidazo[1,2-b][1,2,4]triazin-2-yl]benzamide] | < 500 nM
CC(NC(=O)c1ccc(-c2cnc3ncc(Cc4ccc5ncccc5c4)n3n2)cc1F)c1ccncc1 (stereo not drawn) [Example 156, 2-Fluoro-N-(1-pyridin-4-ylethyl)-4-[7-(quinolin-6-ylmethyl)imidazo[1,2-b][1,2,4]triazin-2-yl]benzamide] | < 500 nM
CC(C)(C)[C@@H](CO)NC(=O)c1ccc(-c2cnc3ncc(Cc4ccc5ncccc5c4)n3n2)cc1F [Example 157, 2-Fluoro-N-[(1S)-1-(hydroxymethyl)-2,2-dimethylpropyl]-4-[7-(quinolin-6-ylmethyl)imidazo[1,2-b][1,2,4]triazin-2-yl]benzamide] | < 500 nM
O=C(NC1(CO)CCCC1)c1ccc(-c2cnc3ncc(Cc4ccc5ncccc5c4)n3n2)cc1F [Example 158, 2-Fluoro-N-[1-(hydroxymethyl)cyclopentyl]-4-[7-(quinolin-6-ylmethyl)imidazo[1,2-b][1,2,4]triazin-2-yl]benzamide] | < 500 nM

Structure (SMILES) | IC50
CC(c1ccc2ncccc2c1)c1cnc2ncc(-c3ccc(C(=O)N[C@H]4CC[C@H](O)CC4)c(F)c3)nn12 (stereo partly drawn) [Example 159, 2-Fluoro-N-(trans-4-hydroxycyclohexyl)-4-[7-(1-quinolin-6-ylethyl)imidazo[1,2-b][1,2,4]triazin-2-yl]benzamide] | < 500 nM
CNC(=O)c1ccc(-c2cnc3ncc(C(C)c4ccc5ncccc5c4)n3n2)cc1F (stereo not drawn) [Example 160, 2-Fluoro-N-methyl-4-[7-(1-quinolin-6-ylethyl)imidazo[1,2-b][1,2,4]triazin-2-yl]benzamide] | < 500 nM
CC(c1ccc2ncccc2c1)c1cnc2ncc(-c3ccc(C(=O)NC4CC4)c(F)c3)nn12 (stereo not drawn) [Example 161, N-Cyclopropyl-2-fluoro-4-[7-(1-quinolin-6-ylethyl)imidazo[1,2-b][1,2,4]triazin-2-yl]benzamide] | < 500 nM
COCC1(NC(=O)c2ccc(-c3cnc4ncc(C(C)c5ccc6ncccc6c5)n4n3)cc2F)CC1 (stereo not drawn) [Example 162, 2-Fluoro-N-[1-(methoxymethyl)cyclopropyl]-4-[7-(1-quinolin-6-ylethyl)imidazo[1,2-b][1,2,4]triazin-2-yl]benzamide] | < 500 nM
COCC(C)NC(=O)c1ccc(-c2cnc3ncc(C4(c5ccc6ncccc6c5)CC4)n3c2)cc1F (stereo not drawn) [Example 163, 2-Fluoro-N-(2-methoxy-1-methylethyl)-4-[3-(1-quinolin-6-ylcyclopropyl)imidazo[1,2-a]pyrimidin-6-yl]benzamide] | < 500 nM
O=C(c1ccc(-c2cnc3ncc(C4(c5ccc6ncccc6c5)CC4)n3c2)cc1F)N1CC[C@H](F)C1 [Example 164, 6-{1-[6-(3-Fluoro-4-[(3S)-3-fluoropyrrolidin-1-yl]carbonylphenyl)imidazo[1,2-a]pyrimidin-3-yl]cyclopropyl}quinoline] | < 500 nM
O=C(NCc1ccccn1)c1ccc(-c2cnc3ncc(C4(c5ccc6ncccc6c5)CC4)n3c2)cc1F [Example 165, 2-Fluoro-N-(pyridin-2-ylmethyl)-4-[3-(1-quinolin-6-ylcyclopropyl)imidazo[1,2-a]pyrimidin-6-yl]benzamide] | < 500 nM
O=C(NC1(c2ccccn2)CC1)c1ccc(-c2cnc3ncc(C4(c5ccc6ncccc6c5)CC4)n3c2)cc1F [Example 166, 2-Fluoro-N-(1-pyridin-2-ylcyclopropyl)-4-[3-(1-quinolin-6-ylcyclopropyl)imidazo[1,2-a]pyrimidin-6-yl]benzamide] | < 500 nM
O=C(NC1CCN(c2ccccn2)C1)c1ccc(-c2cnc3ncc(C4(c5ccc6ncccc6c5)CC4)n3c2)cc1F (stereo not drawn) [Example 167, 2-Fluoro-N-(1-pyridin-2-ylpyrrolidin-3-yl)-4-[3-(1-quinolin-6-ylcyclopropyl)imidazo[1,2-a]pyrimidin-6-yl]benzamide] | < 500 nM
O=C(N[C@@H]1CCOC1)c1ccc(-c2cnc3ncc(C4(c5ccc6ncccc6c5)CC4)n3c2)cc1F [Example 168, 2-Fluoro-4-[3-(1-quinolin-6-ylcyclopropyl)imidazo[1,2-a]pyrimidin-6-yl]-N-[(3R)-tetrahydrofuran-3-yl]benzamide] | < 500 nM
O=C(NCC1CCCO1)c1ccc(-c2cnc3ncc(C4(c5ccc6ncccc6c5)CC4)n3c2)cc1F (stereo not drawn) [Example 169, 2-Fluoro-4-[3-(1-quinolin-6-ylcyclopropyl)imidazo[1,2-a]pyrimidin-6-yl]-N-(tetrahydrofuran-2-ylmethyl)benzamide] | < 500 nM
O=C(NC1CC1)c1ccc(-c2cnc3ncc(C4(c5ccc6ncccc6c5)CC4)n3c2)cc1F [Example 170, N-Cyclopropyl-2-fluoro-4-[3-(1-quinolin-6-ylcyclopropyl)imidazo[1,2-a]pyrimidin-6-yl]benzamide] | < 500 nM
COC[C@@H](NC(=O)c1ccc(-c2cnc3ncc(C4(c5ccc6ncccc6c5)CC4)n3c2)cc1F)C(C)C [Example 171, 2-Fluoro-N-[(1S)-1-(methoxymethyl)-2-methylpropyl]-4-[3-(1-quinolin-6-ylcyclopropyl)imidazo[1,2-a]pyrimidin-6-yl]benzamide] | < 500 nM
NC(=O)c1ccc(-c2cnc3ncc(C4(c5ccc6ncccc6c5)CC4)n3c2)cc1F [Example 172, 2-Fluoro-4-[3-(1-quinolin-6-ylcyclopropyl)imidazo[1,2-a]pyrimidin-6-yl]benzamide] | < 500 nM
CN(CCN(C)c1ccccn1)C(=O)c1ccc(-c2cnc3ncc(C4(c5ccc6ncccc6c5)CC4)n3c2)cc1F [Example 173, 2-Fluoro-N-methyl-N-2-[methyl(pyridin-2-yl)amino]ethyl-4-[3-(1-quinolin-6-ylcyclopropyl)imidazo[1,2-a]pyrimidin-6-yl]benzamide] | < 500 nM
CNC(=O)c1ccc(-c2cnc3ncc(C4(c5ccc6ncccc6c5)CC4)n3c2)cc1Cl [Example 174, 2-Chloro-N-methyl-4-[3-(1-quinolin-6-ylcyclopropyl)imidazo[1,2-a]pyrimidin-6-yl]benzamide] | < 500 nM
